Data on six compounds can be found in ChEMBL document CHEMBL5465560, “Selectivity Literature for EUbOPEN Chemogenomic Library” (2024).

In experiment [1] the target is Protein kinase C delta type (Homo sapiens) (UniProt Q05655). In words: Selectivity interaction (Ambit KINOMEscan and KiNATiv profiling in Jurkat cells) EUB0000090b PRKCD. In kind it is cell-based. Conditions: at 1 µM.
Another experiment addresses Insulin receptor (Homo sapiens, UniProt P06213). In words: Selectivity interaction (KinomeScan (DiscoverX)) EUB0000229b INSR. Conditions: at 10 µM.
In experiment [2] the target is T1, Cyclin-dependent kinase 11A (Homo sapiens) (UniProt Q9UQ88).
T1 sequence (whole entry): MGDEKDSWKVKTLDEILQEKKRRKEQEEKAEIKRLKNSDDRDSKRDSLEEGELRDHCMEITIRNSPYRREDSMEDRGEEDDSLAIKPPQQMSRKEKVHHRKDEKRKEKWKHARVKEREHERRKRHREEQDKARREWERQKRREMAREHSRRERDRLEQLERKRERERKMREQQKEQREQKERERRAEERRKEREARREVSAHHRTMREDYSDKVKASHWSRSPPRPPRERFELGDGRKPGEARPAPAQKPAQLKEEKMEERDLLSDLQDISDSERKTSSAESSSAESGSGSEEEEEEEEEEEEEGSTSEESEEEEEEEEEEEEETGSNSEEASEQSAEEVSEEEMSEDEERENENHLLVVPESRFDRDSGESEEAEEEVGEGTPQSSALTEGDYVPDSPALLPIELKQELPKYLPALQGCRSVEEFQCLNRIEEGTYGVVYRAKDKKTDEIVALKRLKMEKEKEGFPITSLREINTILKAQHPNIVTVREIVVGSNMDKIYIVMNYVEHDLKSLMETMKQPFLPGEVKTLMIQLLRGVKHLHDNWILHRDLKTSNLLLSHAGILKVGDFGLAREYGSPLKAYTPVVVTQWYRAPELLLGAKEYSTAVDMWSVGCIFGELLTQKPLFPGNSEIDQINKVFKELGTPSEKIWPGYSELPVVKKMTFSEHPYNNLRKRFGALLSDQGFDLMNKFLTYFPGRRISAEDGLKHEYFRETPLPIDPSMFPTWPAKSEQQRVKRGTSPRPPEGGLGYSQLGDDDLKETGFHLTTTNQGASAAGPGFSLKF
In words: Selectivity interaction (KinomeScan (DiscoverX)) EUB0000655a CDK11A. The conditions noted are these: at 10 µM.

The target of experiment [3] is T2, Serine/threonine-protein kinase 36 (Homo sapiens) (UniProt Q9NRP7).
T2 sequence (whole entry): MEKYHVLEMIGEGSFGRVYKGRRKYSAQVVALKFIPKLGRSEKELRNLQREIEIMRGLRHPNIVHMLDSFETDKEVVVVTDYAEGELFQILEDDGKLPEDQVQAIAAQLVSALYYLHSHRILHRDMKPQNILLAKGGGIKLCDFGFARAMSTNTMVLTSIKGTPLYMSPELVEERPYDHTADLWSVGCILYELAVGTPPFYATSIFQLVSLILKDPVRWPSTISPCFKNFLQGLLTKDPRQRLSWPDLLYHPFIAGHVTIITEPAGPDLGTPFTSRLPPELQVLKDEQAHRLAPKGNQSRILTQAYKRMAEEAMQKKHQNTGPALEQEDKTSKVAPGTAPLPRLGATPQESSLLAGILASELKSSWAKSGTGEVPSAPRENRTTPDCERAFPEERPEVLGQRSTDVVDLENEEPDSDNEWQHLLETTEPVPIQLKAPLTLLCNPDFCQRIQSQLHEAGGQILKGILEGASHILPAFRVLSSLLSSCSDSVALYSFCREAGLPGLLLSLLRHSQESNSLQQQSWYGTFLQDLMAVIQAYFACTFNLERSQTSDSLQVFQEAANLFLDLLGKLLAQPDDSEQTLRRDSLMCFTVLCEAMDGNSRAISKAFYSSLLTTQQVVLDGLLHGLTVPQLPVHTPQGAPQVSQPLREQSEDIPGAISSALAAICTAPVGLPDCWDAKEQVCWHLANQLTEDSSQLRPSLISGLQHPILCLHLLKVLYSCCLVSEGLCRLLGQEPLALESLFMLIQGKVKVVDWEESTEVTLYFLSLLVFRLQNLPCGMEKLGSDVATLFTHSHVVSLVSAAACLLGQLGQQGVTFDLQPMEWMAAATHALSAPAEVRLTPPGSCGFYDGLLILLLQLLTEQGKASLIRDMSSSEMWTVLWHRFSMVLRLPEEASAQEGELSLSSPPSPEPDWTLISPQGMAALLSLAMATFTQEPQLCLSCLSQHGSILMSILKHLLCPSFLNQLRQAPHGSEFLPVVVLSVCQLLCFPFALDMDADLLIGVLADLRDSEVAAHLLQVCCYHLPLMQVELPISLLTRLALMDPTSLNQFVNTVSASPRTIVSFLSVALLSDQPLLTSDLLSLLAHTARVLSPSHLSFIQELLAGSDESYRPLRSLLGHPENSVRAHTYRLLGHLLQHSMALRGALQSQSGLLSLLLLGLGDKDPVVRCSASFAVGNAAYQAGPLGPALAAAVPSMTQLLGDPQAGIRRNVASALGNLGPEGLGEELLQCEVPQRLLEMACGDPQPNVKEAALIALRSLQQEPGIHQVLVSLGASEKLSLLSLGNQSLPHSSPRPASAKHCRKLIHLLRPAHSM
In words: Selectivity interaction (KinomeScan (DiscoverX)) EUB0000655a STK36. The conditions noted are these: at 10 µM.

For experiment [4], the target named is T3, NUAK family SNF1-like kinase 1 (Homo sapiens) (UniProt O60285).
T3 sequence (whole entry): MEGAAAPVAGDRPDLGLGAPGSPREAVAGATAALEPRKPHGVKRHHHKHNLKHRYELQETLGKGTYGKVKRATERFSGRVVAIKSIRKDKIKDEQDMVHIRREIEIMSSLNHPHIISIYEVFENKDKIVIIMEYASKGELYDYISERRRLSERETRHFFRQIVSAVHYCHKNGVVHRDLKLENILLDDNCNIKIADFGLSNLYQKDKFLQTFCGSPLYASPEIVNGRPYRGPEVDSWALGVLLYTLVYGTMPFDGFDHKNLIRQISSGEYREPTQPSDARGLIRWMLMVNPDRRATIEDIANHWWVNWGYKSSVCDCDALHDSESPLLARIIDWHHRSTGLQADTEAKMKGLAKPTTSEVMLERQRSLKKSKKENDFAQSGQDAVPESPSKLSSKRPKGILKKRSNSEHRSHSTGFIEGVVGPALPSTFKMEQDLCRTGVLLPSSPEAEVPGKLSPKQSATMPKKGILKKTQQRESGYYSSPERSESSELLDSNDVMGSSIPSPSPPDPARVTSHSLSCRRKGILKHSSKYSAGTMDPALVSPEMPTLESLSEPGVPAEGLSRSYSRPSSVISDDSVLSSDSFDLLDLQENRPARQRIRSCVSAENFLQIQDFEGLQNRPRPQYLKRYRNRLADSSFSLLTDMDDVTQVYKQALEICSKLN
Kind of experiment: Selectivity interaction (Kinase panel (Invitrogen)) EUB0000639a NUAK1. The conditions noted are these: at 200 nM.

Experiment [5] deals with Hepatocyte growth factor receptor (Homo sapiens, UniProt P08581). Conditions: at 10 µM.
Sequence of Hepatocyte growth factor receptor (P08581 whole entry): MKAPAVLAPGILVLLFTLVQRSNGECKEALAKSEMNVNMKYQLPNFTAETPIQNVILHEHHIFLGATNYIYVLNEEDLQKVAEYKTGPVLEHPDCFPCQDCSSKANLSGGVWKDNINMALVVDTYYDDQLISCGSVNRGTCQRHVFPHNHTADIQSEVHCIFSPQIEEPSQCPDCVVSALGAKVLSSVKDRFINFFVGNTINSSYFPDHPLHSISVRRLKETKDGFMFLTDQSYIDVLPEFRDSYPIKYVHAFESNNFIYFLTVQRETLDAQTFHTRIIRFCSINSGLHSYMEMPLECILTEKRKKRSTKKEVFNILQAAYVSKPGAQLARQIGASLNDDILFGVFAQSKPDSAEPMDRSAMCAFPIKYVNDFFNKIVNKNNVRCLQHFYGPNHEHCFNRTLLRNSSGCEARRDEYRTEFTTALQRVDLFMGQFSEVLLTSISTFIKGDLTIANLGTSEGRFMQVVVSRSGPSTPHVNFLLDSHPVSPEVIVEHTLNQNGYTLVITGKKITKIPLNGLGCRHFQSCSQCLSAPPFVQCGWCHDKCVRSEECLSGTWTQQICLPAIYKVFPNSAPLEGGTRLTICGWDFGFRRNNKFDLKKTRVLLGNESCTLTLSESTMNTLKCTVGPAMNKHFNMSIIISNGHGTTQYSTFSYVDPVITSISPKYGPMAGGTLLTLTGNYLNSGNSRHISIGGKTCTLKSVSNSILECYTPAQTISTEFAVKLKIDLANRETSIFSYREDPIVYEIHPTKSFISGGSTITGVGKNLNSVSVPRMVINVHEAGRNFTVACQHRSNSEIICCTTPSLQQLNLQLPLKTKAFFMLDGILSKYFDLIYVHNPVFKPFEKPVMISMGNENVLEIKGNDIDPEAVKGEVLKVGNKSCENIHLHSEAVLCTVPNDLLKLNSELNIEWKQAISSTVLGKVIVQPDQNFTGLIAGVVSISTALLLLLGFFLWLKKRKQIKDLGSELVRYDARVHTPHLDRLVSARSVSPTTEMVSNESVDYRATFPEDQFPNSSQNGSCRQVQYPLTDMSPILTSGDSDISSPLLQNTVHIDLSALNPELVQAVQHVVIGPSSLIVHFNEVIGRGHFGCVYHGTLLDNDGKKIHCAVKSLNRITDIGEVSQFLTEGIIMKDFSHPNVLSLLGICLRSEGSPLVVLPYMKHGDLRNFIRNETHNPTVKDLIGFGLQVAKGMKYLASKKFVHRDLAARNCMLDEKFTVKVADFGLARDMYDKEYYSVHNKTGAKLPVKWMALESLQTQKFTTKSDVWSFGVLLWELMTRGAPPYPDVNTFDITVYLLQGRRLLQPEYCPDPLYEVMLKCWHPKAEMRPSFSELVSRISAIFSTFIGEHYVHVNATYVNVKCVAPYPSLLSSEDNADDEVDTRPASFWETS
Experiment [6] addresses STE20-like serine/threonine-protein kinase (Homo sapiens, UniProt Q9H2G2). In words: Selectivity interaction (Kinase panel (DSF assay)) EUB0001559a SLK. On the technique in general: Differential scanning fluorimetry follows unfolding on heating by fluorescence.

Sequence of Insulin receptor (P06213 28-758 limits assumed): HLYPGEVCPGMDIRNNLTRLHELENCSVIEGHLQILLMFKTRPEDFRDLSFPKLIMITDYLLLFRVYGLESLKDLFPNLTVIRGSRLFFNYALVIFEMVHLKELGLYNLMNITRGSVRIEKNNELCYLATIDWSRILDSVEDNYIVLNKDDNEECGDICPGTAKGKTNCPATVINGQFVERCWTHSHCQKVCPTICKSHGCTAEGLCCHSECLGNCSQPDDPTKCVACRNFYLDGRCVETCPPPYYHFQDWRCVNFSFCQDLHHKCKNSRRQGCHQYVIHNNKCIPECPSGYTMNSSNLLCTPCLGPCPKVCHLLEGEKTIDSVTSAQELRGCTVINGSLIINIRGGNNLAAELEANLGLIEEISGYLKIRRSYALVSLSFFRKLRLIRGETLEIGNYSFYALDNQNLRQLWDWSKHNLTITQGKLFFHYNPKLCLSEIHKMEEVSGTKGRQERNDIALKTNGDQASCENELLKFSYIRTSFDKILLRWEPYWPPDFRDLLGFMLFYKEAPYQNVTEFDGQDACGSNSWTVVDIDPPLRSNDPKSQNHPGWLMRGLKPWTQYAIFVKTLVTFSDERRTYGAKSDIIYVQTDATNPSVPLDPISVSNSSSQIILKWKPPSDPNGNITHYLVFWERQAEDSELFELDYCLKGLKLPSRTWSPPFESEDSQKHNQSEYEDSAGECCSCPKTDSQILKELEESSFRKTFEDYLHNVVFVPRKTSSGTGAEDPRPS
Sequence of Insulin receptor (P06213 763-1382 limits assumed): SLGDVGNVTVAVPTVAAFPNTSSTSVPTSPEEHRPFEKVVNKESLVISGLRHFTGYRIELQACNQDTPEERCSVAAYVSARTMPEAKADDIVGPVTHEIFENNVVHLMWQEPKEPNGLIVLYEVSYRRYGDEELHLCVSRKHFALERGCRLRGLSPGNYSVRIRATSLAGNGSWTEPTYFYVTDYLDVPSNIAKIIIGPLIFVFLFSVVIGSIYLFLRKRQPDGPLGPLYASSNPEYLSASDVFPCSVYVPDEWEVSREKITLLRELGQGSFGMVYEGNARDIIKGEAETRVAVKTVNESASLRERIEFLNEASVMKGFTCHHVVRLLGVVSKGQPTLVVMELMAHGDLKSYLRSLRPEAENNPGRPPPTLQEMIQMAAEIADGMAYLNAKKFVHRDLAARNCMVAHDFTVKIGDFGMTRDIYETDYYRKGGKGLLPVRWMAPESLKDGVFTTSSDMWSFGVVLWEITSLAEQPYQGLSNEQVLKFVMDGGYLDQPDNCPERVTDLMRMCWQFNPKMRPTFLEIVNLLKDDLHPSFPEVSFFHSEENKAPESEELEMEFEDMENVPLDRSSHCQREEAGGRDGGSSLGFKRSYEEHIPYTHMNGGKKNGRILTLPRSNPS
Sequence of Protein kinase C delta type (Homo sapiens) (Q05655 whole entry, looked up): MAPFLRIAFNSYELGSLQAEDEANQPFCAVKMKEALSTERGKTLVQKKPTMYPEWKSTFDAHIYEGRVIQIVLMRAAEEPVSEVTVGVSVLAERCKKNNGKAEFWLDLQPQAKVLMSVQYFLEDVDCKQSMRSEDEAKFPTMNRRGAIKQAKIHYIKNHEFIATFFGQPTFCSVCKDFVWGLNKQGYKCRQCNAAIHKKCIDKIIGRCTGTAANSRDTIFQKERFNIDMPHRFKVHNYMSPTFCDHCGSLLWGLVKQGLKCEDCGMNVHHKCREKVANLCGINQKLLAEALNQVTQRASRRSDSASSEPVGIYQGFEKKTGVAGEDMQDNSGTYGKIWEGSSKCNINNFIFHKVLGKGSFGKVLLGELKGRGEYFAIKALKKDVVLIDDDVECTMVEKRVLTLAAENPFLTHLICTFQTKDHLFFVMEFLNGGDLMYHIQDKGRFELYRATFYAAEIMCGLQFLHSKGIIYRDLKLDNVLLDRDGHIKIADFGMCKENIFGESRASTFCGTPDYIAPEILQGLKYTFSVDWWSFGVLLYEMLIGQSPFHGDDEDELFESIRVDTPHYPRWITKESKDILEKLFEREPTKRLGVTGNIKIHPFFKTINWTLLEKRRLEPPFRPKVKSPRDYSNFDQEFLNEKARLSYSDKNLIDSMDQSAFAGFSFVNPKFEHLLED
Sequence of STE20-like serine/threonine-protein kinase (Q9H2G2 whole entry, looked up): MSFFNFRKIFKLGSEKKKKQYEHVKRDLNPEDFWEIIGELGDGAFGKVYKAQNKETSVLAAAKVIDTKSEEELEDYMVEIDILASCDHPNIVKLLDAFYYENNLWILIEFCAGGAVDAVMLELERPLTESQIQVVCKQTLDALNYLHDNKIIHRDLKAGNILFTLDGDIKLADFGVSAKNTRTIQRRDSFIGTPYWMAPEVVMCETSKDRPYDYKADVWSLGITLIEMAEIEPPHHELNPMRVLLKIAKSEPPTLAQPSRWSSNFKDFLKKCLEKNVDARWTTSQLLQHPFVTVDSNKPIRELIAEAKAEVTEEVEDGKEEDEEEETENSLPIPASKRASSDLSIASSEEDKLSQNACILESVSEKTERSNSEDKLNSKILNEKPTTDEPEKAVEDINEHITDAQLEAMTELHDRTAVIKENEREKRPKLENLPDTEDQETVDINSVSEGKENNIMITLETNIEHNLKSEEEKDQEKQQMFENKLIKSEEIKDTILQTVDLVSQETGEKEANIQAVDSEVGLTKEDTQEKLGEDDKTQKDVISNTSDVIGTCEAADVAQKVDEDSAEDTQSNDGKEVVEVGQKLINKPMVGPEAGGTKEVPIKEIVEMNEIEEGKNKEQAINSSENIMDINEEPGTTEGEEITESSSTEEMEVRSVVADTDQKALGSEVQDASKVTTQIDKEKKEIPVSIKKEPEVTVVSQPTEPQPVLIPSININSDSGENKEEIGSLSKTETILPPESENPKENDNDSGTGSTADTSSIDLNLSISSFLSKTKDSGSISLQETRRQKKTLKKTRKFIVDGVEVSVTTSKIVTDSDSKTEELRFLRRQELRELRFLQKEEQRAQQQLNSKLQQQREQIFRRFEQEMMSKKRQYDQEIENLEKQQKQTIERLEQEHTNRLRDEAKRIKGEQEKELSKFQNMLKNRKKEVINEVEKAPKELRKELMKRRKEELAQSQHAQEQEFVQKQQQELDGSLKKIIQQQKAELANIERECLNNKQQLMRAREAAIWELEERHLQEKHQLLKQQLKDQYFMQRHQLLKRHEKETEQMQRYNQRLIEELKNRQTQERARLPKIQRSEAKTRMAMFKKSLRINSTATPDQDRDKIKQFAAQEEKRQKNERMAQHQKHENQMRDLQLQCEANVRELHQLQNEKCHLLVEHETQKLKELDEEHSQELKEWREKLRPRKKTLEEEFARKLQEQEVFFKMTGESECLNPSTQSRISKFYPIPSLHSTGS

In experiment [1], `CN(C)C/C=C/C(=O)Nc1ccc(C(=O)N2CCCC(Nc3ncc(Cl)c(-c4c[nH]c5ccccc45)n3)C2)cc1` (configuration not stated) had a % of control of 75%.

The compound `COc1cc(N(C)c2ccnc3ccc(C(F)(F)F)cc23)cc(OC)c1OC` registered a % binding on Insulin receptor of 100%. Turning to `CN(C)CCOc1ccc(-c2nc(-c3ccncc3)c(-c3ccc4c(c3)CC/C4=N\O)[nH]2)cc1`, the % of control in experiment [2] was 86%; in experiment [3] it was 35%. `CC[C@@H]1[C@H](F)C(=O)N[C@@H]1COc1nccc2cc(C(N)=O)c(OC)cc12` [ZIMLOVISERTIB] displayed a % of inhibition in experiment [4] of 2.96%. Consider `CCN(CC)CCCCNc1ncc2cc(-c3cc(OC)cc(OC)c3)c(NC(=O)NC(C)(C)C)nc2n1`, for which the % of control in experiment [5] worked out at 100%. In turn, `CN(C(=O)c1cnn2cccnc12)c1cc2c(cc1N1CCOCC1)C(=O)N(C[C@@H](F)C(C)(C)O)C2` gave a dTM in experiment [6] of 1 K.
